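Assay format: 96-well plates, 48-hour exposure. GI50 is the concentration that inhibits growth by half. TGI denotes the concentration required for complete inhibition of growth.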
Tests used:
Assay in all cases: NCI-60 cell line screen, 48 h
786-0 renal = tested on: 786-0 renal
MALME-3M melanoma = tested on: MALME-3M melanoma
SR leukemia = tested on: SR leukemia
UACC-257 melanoma = tested on: UACC-257 melanoma
HL-60(TB) leukemia = tested on: HL-60(TB) leukemia
NCI-H522 lung = tested on: NCI-H522 lung
RPMI-8226 leukemia = tested on: RPMI-8226 leukemia
RXF 393 renal = tested on: RXF 393 renal
SK-MEL-5 melanoma = tested on: SK-MEL-5 melanoma
OVCAR-3 ovarian = tested on: OVCAR-3 ovarian

SMILES | TGI (786-0 renal) | TGI (MALME-3M melanoma) | TGI (SR leukemia) | TGI (UACC-257 melanoma) | TGI (HL-60(TB) leukemia) | TGI (NCI-H522 lung) | TGI (RPMI-8226 leukemia) | TGI (RXF 393 renal) | TGI (SK-MEL-5 melanoma) | TGI (OVCAR-3 ovarian) | GI50 (786-0 renal) | GI50 (MALME-3M melanoma) | GI50 (SR leukemia) | GI50 (UACC-257 melanoma) | GI50 (OVCAR-3 ovarian) | GI50 (NCI-H522 lung) | GI50 (RPMI-8226 leukemia) | GI50 (HL-60(TB) leukemia) | GI50 (SK-MEL-5 melanoma) | GI50 (RXF 393 renal)
CC(=O)N1c2ccccc2C2=CC3C4C(=O)N(c5ccccc5)C(=O)C4C21C1C(=O)N(c2ccccc2)C(=O)C31 (configuration not stated) | > 100 µM | > 100 µM | > 100 µM | > 100 µM | 58.8 µM | – | – | – | – | – | – | – | – | – | – | – | – | – | – | –
Cn1c2c(c3ccccc31)CCN(CCN1CCN(c3ccccc3)CC1)C2=O | > 100 µM | – | – | – | > 100 µM | 92.9 µM | > 100 µM | 83.4 µM | > 100 µM | – | – | – | – | – | – | – | – | – | – | –
COc1ccc2c(c1O)C13CCN(C)C(C2)C1CCC1(C3)OCCO1 (configuration not stated) | > 100 µM | > 100 µM | > 100 µM | > 100 µM | – | > 100 µM | > 100 µM | > 100 µM | > 100 µM | > 100 µM | – | – | – | – | – | – | – | – | – | –
COc1cc2c(cc1OCCCCCOc1cc3c(cc1OC)C(=O)N1CC(F)C[C@H]1C=N3)N=C[C@@H]1CC(F)CN1C2=O (some centres not stated) | 0.16 µM | 0.733 µM | – | 0.444 µM | 2.39 µM | 0.204 µM | 0.0622 µM | – | 0.127 µM | 0.51 µM | < 0.01 µM | 0.124 µM | < 0.01 µM | 0.165 µM | 0.128 µM | 0.0372 µM | < 0.0151 µM | < 0.01 µM | 0.0511 µM | –
CCOC(=O)c1sc2ncn(Cc3cccc(Br)c3)c(=O)c2c1C | > 100 µM | – | 88.7 µM | 84.4 µM | > 100 µM | 65.8 µM | > 100 µM | > 100 µM | 96 µM | > 100 µM | 33.9 µM | – | 8.18 µM | 21.1 µM | 39.7 µM | 9.7 µM | 27.6 µM | 28.7 µM | 25.7 µM | 29 µM
N#Cc1cccc(OCc2nc(N)nc(N)c2-c2ccc(Cl)c(Cl)c2)c1 | > 100 µM | – | > 100 µM | > 100 µM | > 100 µM | > 100 µM | > 100 µM | > 100 µM | > 100 µM | > 100 µM | 0.513 µM | – | 2.39 µM | 2.92 µM | 5.53 µM | 5.62 µM | 4.65 µM | 1.55 µM | 1.29 µM | 2.13 µM
CCOC(=O)/C(=N\OC)C(O)C(F)(F)F (configuration not stated) | > 100 µM | > 100 µM | > 100 µM | > 100 µM | > 100 µM | > 100 µM | > 100 µM | > 100 µM | > 100 µM | – | – | – | – | – | – | – | – | – | – | –
O=C(O)C1=CCCc2ccc3ccccc3c21 | > 100 µM | > 100 µM | – | > 100 µM | – | > 100 µM | > 100 µM | > 100 µM | – | > 100 µM | – | – | – | – | – | – | – | – | – | –
[Cl][Sn]([Cl])([c]1ccccc1)[c]1ccccc1 | 16.7 µM | 8.01 µM | 25.7 µM | 27 µM | 31.1 µM | – | 18 µM | – | 26.9 µM | 26.2 µM | 4.8 µM | 2.68 µM | 3.93 µM | 13.6 µM | 13.4 µM | – | 2.71 µM | 4.03 µM | 12.2 µM | 2.79 µM
COc1cc(C(=O)N2N=C(c3ccc(S(C)(=O)=O)cc3)CC2c2ccco2)cc(OC)c1OC (configuration not stated) | > 100 µM | > 100 µM | – | > 100 µM | 4.47 µM | > 61.6 µM | 4.36 µM | 56 µM | > 63.2 µM | 5.46 µM | 8.51 µM | 5.01 µM | – | > 100 µM | 1.95 µM | 3.95 µM | 0.647 µM | 1.41 µM | 2.99 µM | 4.74 µM
COc1cc2c(cc1O)-c1c(cnn1-c1ccc([N+](=O)[O-])cc1)CCC2 | > 100 µM | 29.2 µM | – | 52 µM | – | 40.9 µM | 16.6 µM | > 100 µM | 26.2 µM | 55.2 µM | – | – | – | – | – | – | – | – | – | –
NC(=O)C#CC#CC#CCO | 2.93 µM | 3.72 µM | 4.54 µM | 5.87 µM | 3.01 µM | 0.301 µM | – | 3.66 µM | 3.78 µM | 3.49 µM | – | – | – | – | – | – | – | – | – | –
CS(=O)(=O)OCC1OC(n2ccc(NC(=O)c3ccccc3)nc2=O)CC1OS(C)(=O)=O (configuration not stated) | > 100 µM | – | > 100 µM | > 100 µM | > 100 µM | > 100 µM | > 100 µM | – | > 100 µM | > 100 µM | – | – | – | – | – | – | – | – | – | –
N#C/C(=N\Nc1ccc(Cl)cc1)C(=O)Nc1cc(-c2ccccc2)nn1-c1ccccc1 | > 100 µM | – | > 100 µM | 8.62 µM | 9.38 µM | > 100 µM | 6.67 µM | 6.32 µM | 4.27 µM | > 100 µM | 4.05 µM | – | 3.59 µM | 2.35 µM | 2.71 µM | 2.38 µM | 1.77 µM | 3.05 µM | 1.63 µM | 2.06 µM
COc1cc2c3c(n(CCCN(CCN)CCCn4c5c(c6cc(OC)c(OC)cc6c4=O)C(=O)c4cc6c(cc4-5)OCO6)c(=O)c2cc1OC)-c1cc2c(cc1C3=O)OCO2 | 1.51 µM | – | – | > 89.1 µM | – | 3.88 µM | – | 12.7 µM | 3.34 µM | 20.7 µM | 0.314 µM | – | – | 11.6 µM | 4.34 µM | 0.343 µM | – | – | 1.04 µM | 3.39 µM
O=c1c2ccccc2c(Br)c(Br)c2ccccc12 | 29.8 µM | 7.65 µM | – | 43.6 µM | – | 3.47 µM | 5.84 µM | 12.7 µM | 31.6 µM | 12 µM | 14.7 µM | 2.66 µM | – | 7.48 µM | 3.37 µM | 1.76 µM | 2.51 µM | – | 13.6 µM | 3.32 µM
C#CCN(Cc1nc2cc(C(F)(F)F)ccc2nc1-c1ccccc1)c1ccc(OC(F)(F)F)cc1 | > 100 µM | > 100 µM | – | > 100 µM | – | 54.6 µM | > 100 µM | > 100 µM | > 100 µM | > 100 µM | > 100 µM | > 100 µM | – | > 100 µM | 49.1 µM | 16.6 µM | 23.3 µM | – | 34 µM | 46.7 µM
N#CC(C(=O)/C(=N/NC(=O)c1ccccc1O)C(C#N)c1ccccc1)c1ccccc1 (configuration not stated) | > 100 µM | > 100 µM | – | > 100 µM | – | – | > 100 µM | > 100 µM | – | > 100 µM | – | – | – | – | – | – | – | – | – | –

Source: PubChem BioAssay (NCI)
